From PubChem BioAssay (NCI)
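Assay format: 96-well plates, 48-hour exposure. TGI: concentration producing complete growth inhibition.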 Where a SMILES comes first, the peptide text is derived from it. Bridges are numbered along the chain shown (N, C = ends). [ ]: non-standard residue; d: D form. The star is where a group is joined. Cbz = O=C(OCc1ccccc1)*; Dab = NCC[CH](N)C(=O)O; Bn = c1ccc(C*)cc1

Legend:
Test in all cases: DTP human tumour cell line panel, 48 h
[1] = system: SK-OV-3 ovarian
[2] = system: HL-60(TB) leukemia
[3] = system: M14 melanoma
[4] = system: SN12C renal
[5] = system: SK-MEL-28 melanoma
[6] = system: HT29 colon
[7] = system: SR leukemia
[8] = system: A498 renal
[9] = system: MOLT-4 leukemia
[10] = system: TK-10 renal
[11] = system: PC-3 prostate
[12] = system: 786-0 renal
[13] = system: UACC-62 melanoma
[14] = system: NCI-H226 lung
[15] = system: LOX IMVI melanoma
[16] = system: RXF 393 renal
[17] = system: MCF7 breast
[18] = system: IGROV1 ovarian
[19] = system: SF-539 CNS
[20] = system: K-562 leukemia
[21] = system: KM12 colon
[22] = system: NCI-H460 lung
[23] = system: HCC-2998 colon
[24] = system: HS 578T breast
[25] = system: SNB-75 CNS
[26] = system: NCI/ADR-RES ovarian
[27] = system: OVCAR-3 ovarian
[28] = system: BT-549 breast
[29] = system: SNB-19 CNS
[30] = system: SK-MEL-5 melanoma
[31] = system: EKVX NSCLC
[32] = system: OVCAR-8 ovarian
[33] = system: SW-620 colon
[34] = system: ACHN renal
[35] = system: CAKI-1 renal
[36] = system: HOP-92 NSCLC
[37] = system: SF-268 CNS
[38] = system: NCI-H23 lung
[39] = system: OVCAR-5 ovarian
[40] = system: OVCAR-4 ovarian
[41] = system: RPMI-8226 leukemia
[42] = system: UO-31 renal
[43] = system: HCT-15 colon
[44] = system: CCRF-CEM leukemia
[45] = system: A549 NSCLC
[46] = system: U251 CNS
[47] = system: UACC-257 melanoma

O=C1CCCC2=C1CC1=C(CCCC1=O)N2c1ccccc1C(=O)O
TGI [1]: > 100 µM
TGI [2]: > 100 µM
TGI [3]: > 100 µM
TGI [4]: > 100 µM
TGI [5]: > 100 µM
TGI [6]: > 100 µM
TGI [7]: > 100 µM
TGI [8]: > 100 µM
TGI [9]: > 100 µM
TGI [10]: > 100 µM
TGI [11]: > 100 µM
TGI [12]: > 100 µM
TGI [13]: > 100 µM
TGI [14]: > 100 µM
TGI [15]: > 100 µM
TGI [16]: > 100 µM
TGI [17]: > 100 µM
TGI [18]: > 100 µM
TGI [19]: > 100 µM
TGI [20]: > 100 µM
TGI [21]: > 100 µM
TGI [22]: > 100 µM
TGI [23]: > 100 µM
TGI [24]: > 100 µM
TGI [25]: > 100 µM
TGI [26]: > 100 µM
TGI [27]: > 100 µM
TGI [28]: > 100 µM
TGI [29]: > 100 µM
TGI [30]: > 100 µM
TGI [31]: > 100 µM
TGI [32]: > 100 µM
TGI [33]: > 100 µM
TGI [34]: > 100 µM
TGI [35]: > 100 µM
TGI [36]: > 100 µM
TGI [37]: > 100 µM
TGI [38]: > 100 µM
TGI [39]: > 100 µM
TGI [40]: > 100 µM
TGI [41]: > 100 µM
TGI [42]: > 100 µM
TGI [43]: > 100 µM
TGI [44]: > 100 µM
TGI [45]: > 100 µM
TGI [46]: > 100 µM

CC(C)CC1NC(=O)C(Cc2ccccc2)NC(=O)C(Cc2ccccc2)NC(=O)C(NC(=O)C(Cc2ccc(OCc3ccccc3)cc2)NC(=O)OCc2ccccc2)CCNC1=O (stereo not given) (Cbz-Y(Bn)[Dab]FFL; lactam 2-C; configuration not given here)
TGI [47]: 84.7 µM
TGI [14]: > 100 µM
TGI [36]: > 100 µM
TGI [38]: > 100 µM
